Measured values: patent US7897593B2, “HIV integrase inhibitors” (priority 2006, dated 2011)

Experiments:
[1] = molecular target: T1, purified integrase (Human immunodeficiency virus type 1 group M subtype B, UniProt P12497); test: HIV-Integrase binding assay (competition with radiolabeled integrase inhibitor); settings: competition with [3H]-labeled integrase inhibitor; Cheng and Prusoff
T1 construct: Recombinant integrase (0.26 ng) was incubated with the beads
Experimental: HIV-Integrase binding assay. In this assay competitive binding experiments with test compounds and a radiolabeled integrase inhibitor (compound A) are performed against purified integrase. […] Binding reactions were carried out in 96-well white polystyrene assay plates (Corning, #3600). The following was added sequentially to each well: 20 μl of water or 20μl of human serum (Cellgro Cat# 35-060-CL), 5 μl of serially diluted compound (in 50% DMSO/50% integrase SPA buffer), 5 μl of [^3H]-compound I (6,000 cpm/μl in SPA buffer) and 20 μl of bead/DNA/enzyme complex. The plates were shaken for 2 hours and then allowed to sit at room temperature without shaking overnight. The [^3H]-compound I binding was measured using a Topcount scintillation counter. Cheng and Prusoff equations were used to convert the inhibition of compound 1 binding into the corresponding Ki value. Activity equal to A refers to a compound having Ki=0.001 to 0.003 μM while B and C denote compounds having Ki=0.003 to 0.05 μM and Ki≧0.050 μM respectively.

[2] = test system: recombinant NL-Rluc virus; test: Inhibition of HIV replication; type: cell-based; settings: Human immunodeficiency virus 1, read-out: Antiviral Activity, NL-RLuc virus; three serum conditions described, the one tabulated is not stated
[3] = molecular target: T2, HIV-integrase (Human immunodeficiency virus type 1 group M subtype B, UniProt P12497); test: HIV-Integrase Inhibition Activity (SPA strand transfer assay); type: biochemical; settings: recombinant integrase, SPA beads, P33 labeled target DNA
T2 construct: Recombinant integrase (0.26 ng) was incubated with the beads
Experimental: HIV-Integrase InhibitionActivity. To evaluate in-vitro activity against HIV-integrase, 5 pmole of biotin labeled substrate DNA was bound to 100 μg of Streptavidin coated PVT SPA beads (Amersham Pharmacia Biotech). Recombinant integrase (0.26 ng) was incubated with the beads for 90 min at 37° C. Unbound enzyme was removed by washing the complex followed by addition of inhibitors and 0.1 fmol of P33 labeled target DNA. The reaction was stopped by adding EDTA to a final concentration of 10 mM. Samples were counted in TopCountNXT (Packard) and the CPM was used as a measure of integration. The reaction condition was as described in A. Engelman and R. Craigie, J. Virol 69, 5908-5911 (1995). The sequences of substrate and target DNA were described in Nucleic Acid Research 22, 1121-1122 (1994). Activity equal to A refers to a compound having IC50=0.001 to 0.01 μM B=0.01-0.1, and C≧0.1 μM respectively.

Compound `CN(C)C(=O)C(=O)N1CCC2(CC1)NCCn1c2nc(C(=O)NCc2ccc(F)cc2)c(O)c1=O` [Example 34, 1-(2-(Dimethylamino)-2-oxoacetyl)-N-(4-fluorobenzyl)-3′-hydroxy-4′-oxo-4′,6′,7′,8′-tetrahydrospiro[piperidine-4,9′-pyrazino[1,2-a]pyrimidine]-2′-carboxamide] has a Ki [1] of 3 to 50 nM and an EC50 [2] of 10 to 100 nM.
Work on `Cc1nnc(C(=O)N2CCC3(CC2)NCCn2c3nc(C(=O)NCc3ccc(F)cc3)c(O)c2=O)o1` [Example 35, N-(4-Fluorobenzyl)-3′-hydroxy-1-(5-methyl-1,3,4-oxadiazole-2-carbonyl)-4′-oxo-4′,6′,7′,8′-tetrahydrospiro[piperidine-4,9′-pyrazino[1,2-a]pyrimidine]-2′-carboxamide] yielded a Ki [1] of 3 to 50 nM and an EC50 [2] of 10 to 100 nM.
`Cc1ncnn1-c1cc(F)ccc1CNC(=O)c1nc2n(c(=O)c1O)CCOC21CCN(S(C)(=O)=O)C1` (centres unmarked) [Example 39, N-(4-Fluoro-2-(5-methyl-1H-1,2,4-triazol-1-yl)benzyl)-3-hydroxy-1′-(methylsulfonyl)-4-oxo-6,7-dihydro-4H-spiro[pyrimido[2,1-c][1,4]oxazine-9,3′-pyrrolidine]-2-carboxamide] was tested, and the IC50 [3] was 10 to 100 nM and the EC50 [2] was 10 to 100 nM.
For `CN(C)C(=O)C(=O)N1CCC2(C1)OCCn1c2nc(C(=O)NCc2ccc(F)cc2)c(O)c1=O` (centres unmarked) [Example 40, 1′-(2-(Dimethylamino)-2-oxoacetyl)-N-(4-fluorobenzyl)-3-hydroxy-4-oxo-6,7-dihydro-4H-spiro[pyrimido[2,1-c][1,4]oxazine-9, 3′-pyrrolidine]-2-carboxamide], the IC50 [3] was 1 to 10 nM and the EC50 [2] was 10 to 100 nM.
In the case of `Cc1ncnn1-c1cc(F)ccc1CNC(=O)c1nc2n(c(=O)c1O)CCOC21CCN(C(=O)C(=O)N(C)C)C1` (centres unmarked) [Example 41, 1′-(2-(Dimethylamino)-2-oxoacetyl)-N-(4-fluoro-2-(5-methyl-1H-1,2,4-triazol-1-yl)benzyl)-3-hydroxy-4-oxo-6,7-dihydro-4H-spiro[pyrimido[2,1-c][1,4]oxazine-9,3′-pyrrolidine]-2-carboxamide], the IC50 [3] is reported as 10 to 100 nM and the EC50 [2] is reported as > 100 nM.
In the case of `CC(C)OC(=O)N1CCC2(C1)OCCn1c2nc(C(=O)NCc2ccc(F)cc2)c(O)c1=O` (centres unmarked) [Example 42, Isopropyl 2-(4-fluorobenzylcarbamoyl)-3-hydroxy-4-oxo-6,7-dihydro-4H-spiro[pyrimido[2,1-c][1,4]oxazine-9,3′-pyrrolidine]-1′-carboxylate], the IC50 [3] is reported as 1 to 10 nM and the EC50 [2] is reported as 1 to 10 nM.
Work on `Cc1ncnn1-c1cc(F)ccc1CNC(=O)c1nc2n(c(=O)c1O)CCOC21CCN(C(=O)OC(C)C)C1` (centres unmarked) [Example 43, Isopropyl 2-(4-fluoro-2-(5-methyl-1H-1,2,4-triazol-1-yl)benzylcarbamoyl)-3-hydroxy-4-oxo-6,7-dihydro-4H-spiro[pyrimido[2,1-c][1,4]oxazine-9,3′-pyrrolidine]-1′-carboxylate] yielded an IC50 [3] of 10 to 100 nM and an EC50 [2] of 10 to 100 nM.
`Cc1nnc(C(=O)N2CCC3(C2)OCCn2c3nc(C(=O)NCc3ccc(F)cc3)c(O)c2=O)o1` (centres unmarked) [Example 44, N-(4-Fluorobenzyl)-3-hydroxy-1′-(5-methyl-1,3,4-oxadiazole-2-carbonyl)-4-oxo-6,7-dihydro-4H-spiro[pyrimido[2,1-c][1,4]oxazine-9,3′-pyrrolidine]-2-carboxamide] was tested, and the Ki [1] was 1 to 3 nM and the EC50 [2] was 10 to 100 nM.
Work on `CCOC(=O)C(=O)N1CCC2(C1)OCCn1c2nc(C(=O)NCc2ccc(F)cc2)c(O)c1=O` (centres unmarked) [Example 45, Ethyl 2-(2-(4-fluorobenzylcarbamoyl)-3-hydroxy-4-oxo-6,7-dihydro-4H-spiro[pyrimido[2,1-c][1,4]oxazine-9,3′-pyrrolidine]-1′-yl)-2-oxoacetate] yielded a Ki [1] of 1 to 3 nM and an EC50 [2] of 10 to 100 nM.
For `Cc1nnc(C(=O)N2CCC3(C2)OCCn2c3nc(C(=O)NCc3ccc(F)cc3-n3ncnc3C)c(O)c2=O)o1` (centres unmarked) [Example 46, N-(4-Fluoro-2-(5-methyl-1H-1,2,4-triazol-1-yl)benzyl)-3-hydroxy-1′-(5-methyl-1,3,4-oxadiazole-2-carbonyl)-4-oxo-6,7-dihydro-4H-spiro[pyrimido[2,1-c][1,4]oxazine-9,3′-pyrrolidine]-2-carboxamide], the Ki [1] was 3 to 50 nM and the EC50 [2] was > 100 nM.
In the case of `CCOC(=O)C(=O)N1CCC2(C1)OCCn1c2nc(C(=O)NCc2ccc(F)cc2-n2ncnc2C)c(O)c1=O` (centres unmarked) [Example 47, Ethyl 2-(2-(4-fluoro-2-(5-methyl-1H-1,2,4-triazol-1-yl)benzylcarbamoyl)-3-hydroxy-4-oxo-6,7-dihydro-4H-spiro[pyrimido[2,1-c][1,4]oxazine-9,3′-pyrrolidine]-1′-yl)-2-oxoacetate], the Ki [1] is reported as 3 to 50 nM and the EC50 [2] is reported as > 100 nM.
Compound `O=C(NCc1ccc(F)cc1)c1nc2n(c(=O)c1O)CCCOC21CCN(C(=O)OCc2ccccc2)CC1` [Example 48] has a Ki [1] of 1 to 3 nM and an EC50 [2] of 10 to 100 nM.
In the case of `CC1CN(S(=O)(=O)c2cc(F)ccc2CNC(=O)c2nc3n(c(=O)c2O)CCCOC32CCN(C(=O)OCc3ccccc3)CC2)CC(C)N1` (centres unmarked) [Example 49], the IC50 [3] is reported as 10 to 100 nM and the EC50 [2] is reported as 10 to 100 nM.
Work on `CN1CCN(S(=O)(=O)c2cc(F)ccc2CNC(=O)c2nc3n(c(=O)c2O)CCCOC32CCN(C(=O)OCc3ccccc3)CC2)CC1` [Example 50] yielded an IC50 [3] of 10 to 100 nM and an EC50 [2] of 10 to 100 nM.
`O=C(NCc1ccc(F)cc1N1CCCCS1(=O)=O)c1nc2n(c(=O)c1O)CCCOC21CCN(C(=O)OCc2ccccc2)CC1` [Example 51] was tested, and the Ki [1] was 3 to 50 nM and the EC50 [2] was 1 to 10 nM.
With `O=C(NCc1ccc(F)cc1S(=O)(=O)N1CCOCC1)c1nc2n(c(=O)c1O)CCCOC21CCN(C(=O)OCc2ccccc2)CC1` [Example 52] the IC50 [3] was 10 to 100 nM and the EC50 [2] was 10 to 100 nM.
With `Cc1ncnn1-c1cc(F)ccc1CNC(=O)c1nc2n(c(=O)c1O)CCCOC21CCN(C(=O)OCc2ccccc2)CC1` [Example 53] the Ki [1] was 3 to 50 nM and the EC50 [2] was 1 to 10 nM.
`O=C(NCc1ccc(F)cc1)c1nc2n(c(=O)c1O)CCOCC21CCN(C(=O)OCc2ccccc2)CC1` [Example 54] showed an IC50 [3] of 10 to 100 nM and an EC50 [2] of 10 to 100 nM.
`Cc1ncnn1-c1cc(F)ccc1CNC(=O)c1nc2n(c(=O)c1O)CCOCC21CCN(C(=O)OCc2ccccc2)CC1` [Example 55] was tested, and the Ki [1] was 3 to 50 nM and the EC50 [2] was 1 to 10 nM.
With `O=C(NCc1ccc(F)cc1)c1nc2n(c(=O)c1O)CCCCC21CCN(C(=O)OCc2ccccc2)CC1` [Example 56] the IC50 [3] was 10 to 100 nM and the EC50 [2] was 10 to 100 nM.
`CC(=O)N1CCC2(CC1)OCCCn1c2nc(C(=O)NCc2ccc(F)cc2)c(O)c1=O` [Example 57, 1-Acetyl-N-(4-fluorobenzyl)-3′-hydroxy-4′-oxo-4′,6′,7′,8′-tetrahydrospiro-[piperidine-4,10′-pyrimido[2,1-c][1,4]oxazepine]-2′-carboxamide] gave a Ki [1] of 1 to 3 nM and an EC50 [2] of 1 to 10 nM.
`COC(=O)N1CCC2(CC1)OCCCn1c2nc(C(=O)NCc2ccc(F)cc2)c(O)c1=O` [Example 58, Methyl 2′-(4-fluorobenzylcarbamoyl)-3′-hydroxy-4′-oxo-4′,6′,7′,8′-tetrahydrospiro[piperidine-4,10′-pyrimido[2,1-c][1,4]oxazepine]-1-carboxylate] gave a Ki [1] of 1 to 3 nM and an EC50 [2] of 1 to 10 nM.
For `CN(C)C(=O)N1CCC2(CC1)OCCCn1c2nc(C(=O)NCc2ccc(F)cc2)c(O)c1=O` [Example 59], the Ki [1] was 1 to 3 nM and the EC50 [2] was 1 to 10 nM.
For `CS(=O)(=O)N1CCC2(CC1)OCCCn1c2nc(C(=O)NCc2ccc(F)cc2)c(O)c1=O` [Example 60], the Ki [1] was 1 to 3 nM and the EC50 [2] was 1 to 10 nM.
Work on `CN(C)S(=O)(=O)N1CCC2(CC1)OCCCn1c2nc(C(=O)NCc2ccc(F)cc2)c(O)c1=O` [Example 61] yielded a Ki [1] of 1 to 3 nM and an EC50 [2] of 1 to 10 nM.
